Source: ChEMBL document CHEMBL3045661, “SYNTHESIS AND CYTOTOXIC PROPERTIES OF NITRO- AND AMINOCHALCONES” (Med Chem Res, 2005)

system: HeLa; assay: Cytotoxicity against Homo sapiens (human) HeLa cells; format: functional, cell-based; conditions: not given

SMILES | IC50 [µM]
COc1cc(C(=O)/C=C/c2ccc(N)cc2)cc(OC)c1OC | 0.48
COc1cc(C(=O)/C=C/c2ccc([N+](=O)[O-])cc2)cc(OC)c1OC | 73

system: B16; assay: Cytotoxicity against Mus musculus (mouse) B16 cells after 3 days by MTT assay; format: functional, cell-based; conditions: B16, 72 h

SMILES | IC50 [µM]
COc1ccc(OC)c(C(=O)/C=C/c2ccc([N+](=O)[O-])cc2)c1 | > 100
COc1ccc(OC)c(/C=C/C(=O)c2ccc(OC)c(N)c2)c1 | 5.6
COc1ccc(OC)c(/C=C/C(=O)c2ccc(OC)c([N+](=O)[O-])c2)c1 | 13
COc1ccc(C(=O)/C=C/c2ccccc2)cc1[N+](=O)[O-] | > 100
COc1ccc(C(=O)/C=C/c2ccccc2)cc1N | > 100
COc1ccc(/C=C/C(=O)c2ccc(OC)c([N+](=O)[O-])c2)cc1 | > 100
COc1ccc(/C=C/C(=O)c2ccc(OC)c(N)c2)cc1 | 43
COc1cccc(/C=C/C(=O)c2ccc(OC)c([N+](=O)[O-])c2)c1 | > 100
COc1cccc(/C=C/C(=O)c2ccc(OC)c(N)c2)c1 | 33
COc1cc(/C=C/C(=O)c2ccc(OC)c([N+](=O)[O-])c2)cc(OC)c1 | 5.6
COc1cc(/C=C/C(=O)c2ccc(OC)c(N)c2)cc(OC)c1 | 8.8
COc1ccc(/C=C/C(=O)c2ccc(OC)c([N+](=O)[O-])c2)cc1OC | > 100
COc1ccc(C(=O)/C=C/c2ccc(OC)c(OC)c2)cc1N | 18
COc1ccc(C(=O)/C=C/c2cc(OC)c(OC)c(OC)c2)cc1[N+](=O)[O-] | > 100
COc1ccc(C(=O)/C=C/c2cc(OC)c(OC)c(OC)c2)cc1N | 67
COc1ccc(OC)c(C(=O)/C=C/c2ccc(N)cc2)c1 | > 100
COc1ccc(OC)c(C(=O)/C=C/c2ccc(OC)c([N+](=O)[O-])c2)c1 | > 100
COc1ccc(OC)c(C(=O)/C=C/c2ccc(OC)c(N)c2)c1 | 2
COc1cc(C(=O)/C=C/c2ccc(N)cc2)cc(OC)c1OC | 30
COc1ccc(/C=C/C(=O)c2cc(OC)c(OC)c(OC)c2)cc1N | 0.24
COc1ccc(/C=C/C(=O)c2cc(OC)c(OC)c(OC)c2)cc1[N+](=O)[O-] | > 100
COc1cc(C(=O)/C=C/c2ccc([N+](=O)[O-])cc2)cc(OC)c1OC | > 100
